Values after ≈ are worked out from the molar mass of the structure shown. Values joined by “and” are separate entries in the source; they are usually repeats but may differ in a detail not shown here. Identical values can stand only once. Like-named read-outs stand apart in the source and are kept apart here.
What was measured:
SK-GT-4 EAC cells = test: MTT proliferation assay, SK-GT-4 cells; format: cell-based; conditions: read-out: Antiproliferative activity IC50, SK-GT-4
Protocol: (§1) The FLO-1, SK-GT-4, and THP-1 cell lines were a gift from Dr. Shrikant Anant’s laboratory. Cells were grown in 10% fetal bovine serum (Fisher Scientific#FB12999102, Pittsburgh, PA, USA) and 1% antibiotic/antimycotic agent (Corning, Tewksbury, MA, USA) in RPMI 1640 media mixed with […] HEPES, L-glutamine (Corning, MA, USA). The cell lines were grown in a 5% CO2 incubator at 37 °C and used below 15 passages for the experiments.
(§2) The proliferation assay used a 3-(4,5-dimethylthiazol-2-yl)-2,5-diphenyltetrazolium bromide (MTT) assay. Briefly, 5000 FLO-1 and SK-GT-4 cells were counted and seeded in each well in 96-well plates. Post 24 h of incubation, EAC cells were treated with multiple concentrations (0–10 μM) of niclosamide (Cayman chemical#10649, Ann Arbor, MI, USA) and its analogs. At respective time points, 10 μL of stock MTT reagent (Millipore Sigma, Bedford, MA, USA) (3 mg/mL) was added to each well and incubated for 1–2 h under the dark at 37 °C. After incubation, the purple formazan crystals were dissolved in equal volumes of DMSO, and the absorbance of the resulting clear solutions was recorded at 570 nm using a microplate reader. A CCK-8 (Abcam, Cat no. ab228554, Burlingame, CA, USA) assay was used for the THP-1 cells. Briefly, 5000 cells were plated in every well of a 96-well plate. After 24 h of plating, THP-1 cells were treated with niclosamide and compound 3a. After the respective time point, an equal amount of CCK-8 reagent was pipetted to the wells and incubated for one hour in an incubator, and finally, the absorbance was recorded at 450 nm. The percent change in the proliferation was calculated by comparing the cell viability of the treated groups to the untreated control cells.

FLO-1 EAC cells = test: MTT proliferation assay, FLO-1 cells; format: cell-based; conditions: read-out: Antiproliferative activity IC50, FLO-1
Protocol: as §1, §2

[1] = tested on: M. mycetomatis MM55 strain; test: In vitro susceptibility testing (MTS), MM55 strain; format: cell-based, Madurella mycetomatis; conditions: for IC50: read-out: Antifungal activity IC50; for IC90: read-out: Antifungal activity IC90
Protocol: (§3) The antifungal activity of the compounds was tested against a geographically and genetically diverse set of M. mycetomatis isolates. These included the MM55 strain from Sudan, strains I1, I3, and […] from India, strain P1 from Mali, strain SO1 from Somalia, strain Peru72012 from Peru, and strain CBS247.48 whose country of origin was unknown. All isolates were originally obtained from patients and identified and maintained in the Erasmus Medical Centre, Rotterdam, The Netherlands. In vitro susceptibility testing was performed as reported previously. The only difference was that tetrazolium compound 3-(4,5-dimethylthiazol-2-yl)-5-(3-carboxymethoxyphenyl)-2-(4-sulfophenyl)-2H-tetrazolium salt (MTS) was used as a viability dye in endpoint reading instead of 2,3-bis-(2-methoxy-4-nitro-5-sulfophenyl)-2H-tetrazolium-5-carboxanilide salt (XTT).

[2] = tested on: M. mycetomatis SO1 isolate; parameters: method as in PMID 34209118; conditions: read-out: IC50 against the Somalian SO1 isolate; cited from earlier work
M. mycetomatis strains = test: In vitro susceptibility testing (MIC), panel of eight strains; format: cell-based, Madurella mycetomatis; conditions: for MIC50: concentration at which 50% of the eight isolates were completely inhibited
Protocol: as §3

[3] = tested on: M. mycetomatis MM55 strain; test: In vivo activity in M. mycetomatis-infected G. mellonella larvae; parameters: species or system Galleria mellonella; d10 AUC / d10 ΔAUC: unit not given here; conditions: 20 µM; for d10 AUC: area under the survival curve; for d10 Survival Corrected with Control / d10 Survival: day 10; for d10 ΔAUC: versus control
Protocol: (§4) In vivo efficacy was determined in larvae of the greater wax moth Galleria mellonella. Since G. mellonella is an invertebrate, it is not subject to directive 2010/63/EU of the European law on animal testing. Larvae were housed in the dark in Petri dishes with Whatman paper. To determine the toxicity in G. mellonella larvae, test compounds were injected on three consecutive days at 24 h intervals in the last pro-leg of healthy larvae followed by monitoring of the survival for ten days. If no significant difference between the control and treated larvae was observed, the compound was considered nontoxic. Larvae were further used in infection studies to determine the in vivo activity of test compounds against M. mycetomatis according to our previously published protocol.

[4] = tested on: Galleria mellonella larvae; test: Toxicity in healthy Galleria mellonella larvae; format: in vivo; conditions: 20 µM, 10 days
Protocol: as §4

Kinetic solubility = format: physicochemical; conditions: aqueous buffer
Protocol: Kinetic solubility was tested using 10 mM stock solutions of test compounds in DMSO followed by dilution with an aqueous buffer to a final concentration of 250 µM and vortexed at 900 rpm for 24 h. Then, the samples were filtered and analyzed by UHPLC (Shimadzu Nexera X2, Milton Keynes, UK).

CHI logD = format: physicochemical; conditions: reversed-phase UHPLC
Protocol: CHI (chromatographic hydrophobicity index) logD was determined according to previously published methods. Test compounds were prepared as 0.5 mM solutions in 50:50 acetonitrile/water and analyzed by reversed-phase UHPLC (wavelength 254 nm). By plotting the retention time of a set of reference compounds against known CHI values, the CHI value of test compounds was calculated according to their retention time, and this was then further converted to CHI logD.

Microsomal clearance = format: in vitro ADME; conditions: for half-life at 0.5 µM: female, CD1, pH 7.4, mouse liver microsomes, read-out: Microsomal T ½; for Microsomal Clearance: mouse liver microsomes, 0.5 µM
Protocol: Liver microsomes were applied to study the microsomal clearance of test compounds. The test compound (0.5 µM) was incubated with female CD1 mouse liver microsomes (0.5 mg/mL, 50 mM potassium phosphate buffer, pH 7.4), and the reaction started with the addition of excess NADPH (8 mg/mL, 50 mM potassium phosphate buffer, and pH 7.4). Immediately, at time 0, then at 3, 6, 9, 15, and 30 min, an aliquot of the incubation mixture was removed and mixed with acetonitrile to stop the reaction. An internal standard (IS) was added to all samples, the samples were centrifuged to sediment precipitated protein, and the plates were then sealed prior to UPLC-MSMS analysis (Xevo TQ-S Micro, Waters^TM, Milford, MA, USA). An exponential decay fit was created from the response ratio (compound peak area/IS peak area) and incubation time, and subsequently, Clint (mL/min/mg protein) was calculated by multiplying the rate constant (k) of the exponential decay curve and incubation conditions (incubation volume/mg protein added).

[5] = HepG2 hepatotoxicity, resazurin assay; format: cell-based; conditions: human, HepG2 hepatoma cells, two independent experiments
Protocol: (§5) HepG2 hepatoma cells were used for hepatotoxicity studies. Cells were provided by ECACC with a certificate of analysis confirming STR profiling and were mycoplasma tested every time new stabilates were made. Cells were screened utilizing a resazurin-based fluorescence assay (λex = 540 nm, λem = 590 nm) in a 384-well plate format. HepG2 cells (1 × 10^5 cells/mL) were incubated with the compound in a 10-point, 1 in 3 dilution series from a top concentration of 100 µM, for 72 h. After the 72 h incubation period, resazurin (0.27 mM in a cell culture medium) was added and the plates were incubated for a further 3–4 h before the fluorescent signal was measured using PHERAstar (BMG Labtech, Ortenberg, Germany). IC50 values were calculated from two independent experiments.

HepG2 hepatoma cells = test: HepG2 hepatotoxicity, resazurin assay; format: cell-based; conditions: 72 h, two independent experiments
Protocol: as §5

[6] = Madurella mycetomatis, MM55STRAIN
[7] = Madurella mycetomatis, CBS247, strain CBS247.48, read-out: MIC, CBS247.48
[8] = Madurella mycetomatis, strain I1, read-out: MIC, I1
[9] = Madurella mycetomatis, strain I3, read-out: MIC, I3
[10] = Madurella mycetomatis, strain I11, read-out: MIC, I11
[11] = Madurella mycetomatis, strain MM55, read-out: MIC, MM55
[12] = Madurella mycetomatis, strain P1, read-out: MIC, P1
[13] = Madurella mycetomatis, strain Peru72012, read-out: MIC, Peru72012
[14] = Madurella mycetomatis, strain SO1, read-out: MIC, SO1

Row | Compound | IC50 (SK-GT-4 EAC cells; SKGT4, 72 h) | IC50 (FLO-1 EAC cells; FLO-1, 72 h) | IC50 [1, 6] | IC90 [1, 6] | MIC (M. mycetomatis strains; [7]) | MIC (M. mycetomatis strains; [8]) | MIC (M. mycetomatis strains; [9]) | MIC (M. mycetomatis strains; [10]) | MIC (M. mycetomatis strains; [11]) | MIC (M. mycetomatis strains; [12]) | MIC (M. mycetomatis strains; [13]) | MIC (M. mycetomatis strains; [14]) | MIC50 (M. mycetomatis strains; Madurella mycetomatis) | d10 AUC [3] | d10 Survival Corrected with Control ([3]; infected larvae) | d10 ΔAUC [3] | also measured
1 | CCc1ccc(NC(=O)c2cc(Cl)ccc2O)cc1 [Compound 2d] | 7100 ± 750 nM | 6130 ± 960 nM | 6600 ± 2000 nM | 8400 ± 1100 nM | – | – | – | – | – | – | – | – | – | – | – | – | –
2 | O=C(Nc1cccc(C(F)(F)F)c1)c1cc(Cl)ccc1O [MMV665807] | – | – | – | – | – | – | – | – | – | – | – | – | – | – | – | – | IC50 [2]: 9930 nM
3 | O=C(Nc1ccc(C(F)(F)F)cc1)c1cc(Cl)ccc1O [Compound 2e] | – | – | 900 ± 200 nM | 1100 ± 200 nM | 2 µM (≈ 0.631 µg/mL) | 1 µM (≈ 0.316 µg/mL) | 1 µM (≈ 0.316 µg/mL) | 2 µM (≈ 0.631 µg/mL) | 2 µM (≈ 0.631 µg/mL) | 1 µM (≈ 0.316 µg/mL) | 1 µM (≈ 0.316 µg/mL) | 1 µM (≈ 0.316 µg/mL) | 1 µM (≈ 0.316 µg/mL) | 453.3 | 3.33% | 121.6 | MIC (M. mycetomatis strains; strain MM55, read-out: MIC, MM55): 1.0 µM (≈ 0.316 µg/mL)
4 | O=C(Nc1ccc(SC(F)(F)F)cc1)c1cc(Cl)ccc1O [Compound 2b, 5-Chloro-2-hydroxy-N-(4-trifluoromethylsulfanylphenyl)benzamide] | – | – | – | – | 0.5 µM (≈ 0.174 µg/mL) | 0.5 µM (≈ 0.174 µg/mL) | 0.5 µM (≈ 0.174 µg/mL) | 0.5 µM (≈ 0.174 µg/mL) | 0.5 µM (≈ 0.174 µg/mL) | 0.3 µM (≈ 0.104 µg/mL) | 0.3 µM (≈ 0.104 µg/mL) | 0.5 µM (≈ 0.174 µg/mL) | 0.5 µM (≈ 0.174 µg/mL) | 451.7 | −3.33% | 120 | IC50 (SK-GT-4 EAC cells; 72 h): 2020 ± 140 nM; IC50 (FLO-1 EAC cells; 72 h): 2200 ± 360 nM; IC50 [1]: 200 ± 100 nM; IC90 [1]: 500 ± 600 nM; Toxicity to non-infected G. mellonella larvae [4]: not toxic; Effect on survival between days three and six ([3]; infected larvae): considerable temporary effect; d10 Survival ([3]; infected larvae): no increased survival; Kinetic solubility (Kinetic solubility; 24 h): stability issues; chromatographic logD (CHI logD): 4.3; half-life at 0.5 µM (Microsomal clearance): 6.66 min; Microsomal Clearance (Microsomal clearance): 0.21 mL/min/mg Protein; IC50 at 72 h [5]: 2300 to 3000 nM; IC50 (HepG2 hepatoma cells): 2990 ± 110 nM; melting point: 200 to 201 °C
5 | N.N.[Cl][Pt][Cl] [Cisplatin, reference compound] | – | – | – | – | – | – | – | – | – | – | – | – | – | – | – | – | IC50 (SK-GT-4 EAC cells; 72 h): 2280 ± 140 nM; IC50 (FLO-1 EAC cells; 72 h): 1700 ± 1480 nM
6 | O=C(Nc1ccc(S(F)(F)(F)(F)F)cc1)c1cc(Cl)ccc1O [Compound 2a, 5-Chloro-2-hydroxy-N-(4-pentafluorosulfanylphenyl)benzamide] | 1800 ± 170 nM | 1620 ± 550 nM | – | 1900 ± 600 nM | 0.5 µM (≈ 0.187 µg/mL) | 0.5 µM (≈ 0.187 µg/mL) | 0.5 µM (≈ 0.187 µg/mL) | 0.5 µM (≈ 0.187 µg/mL) | 0.5 µM (≈ 0.187 µg/mL) | 0.5 µM (≈ 0.187 µg/mL) | 0.3 µM (≈ 0.112 µg/mL) | 0.5 µM (≈ 0.187 µg/mL) | 0.5 µM (≈ 0.187 µg/mL) | 445 | 13.33% | 113.3 | IC50 [1]: 300 ± 100 nM; Toxicity to non-infected G. mellonella larvae [4]: not toxic; d10 Survival ([3]; infected larvae): 26.7% and 26.67%; solubility kinetic at 24 h (Kinetic solubility; kinetic from dmso stock): 0.67 µM (≈ 0.25 µg/mL); chromatographic logD (CHI logD): 3.9; half-life at 0.5 µM (Microsomal clearance): > 30 min; Microsomal Clearance (Microsomal clearance): 0.02 mL/min/mg Protein; IC50 at 72 h [5]: 2300 to 3000 nM; IC50 (HepG2 hepatoma cells): 2260 ± 310 nM
7 | O=C(Nc1cccc(S(F)(F)(F)(F)F)c1)c1cc(Cl)ccc1O [Compound 2c, 5-Chloro-2-hydroxy-N-(3-pentafluorosulfanylphenyl)benzamide] | 1380 ± 450 nM | 1380 ± 400 nM | 1300 ± 700 nM | 2000 ± 100 nM | 2 µM (≈ 0.747 µg/mL) | 1 µM (≈ 0.374 µg/mL) | 1 µM (≈ 0.374 µg/mL) | 2 µM (≈ 0.747 µg/mL) | 2 µM (≈ 0.747 µg/mL) | 0.5 µM (≈ 0.187 µg/mL) | 1 µM (≈ 0.374 µg/mL) | 1 µM (≈ 0.374 µg/mL) | 1 µM (≈ 0.374 µg/mL) | 346.7 | −3.33% | 15 | melting point: 197 °C

— PMC11275179, “Superior Anticancer and Antifungal Activities of New Sulfanyl-Substituted Niclosamide Derivatives” (Biomedicines, 2024)
